Columns and labels:
[1] = tested on: Psoriasis susceptibility related RNA Gene Induced by Stress (PRINS); test: PRINS expression in human psoriatic tissue transplants on SCID mice; type: in vivo, SCID mice bearing human psoriatic tissue; conditions: for PRINS: control 49
Experimental: (§1) In order to examine efficacy of the (−) cis-[4-[2-amino-6-(cyclopropylamino)-9H-purin-9-yl]-2-cyclopentene-1-hydroxymethyl acetate in mice, male and female SCID mice (24 to 28 gms) 6 to 8 weeks old were purchased from Charles River Laboratory (Wilmington, Mass.). The animals were kept in standard rodent cages with isolator tops at 18-26° C., and a relative humidity of 30-70% on a 12 hour light/12 hour dark cycle. Mice were given rodent chow and water ad libitum. […] Suitable animals were selected for the assigned study.
(§2) Mice were subjected to total body irradiation to mildly suppress immune system at 120 rads per animal in a Gamma Cell Radiator. Mice were identified by ear punching.
(§3) 24 Hours after the TBI, a 5 mm×5 mm cut of the human psoriatic tissue was transplanted on the skin of the mice, under ketamine/xylazine anesthesia. The tissues were adherent by using a skin cement. All animals survived the anesthesia and the surgery for the experiment. The complete fusion of the tissues was achieved by day 27. During treatments, mice were observed daily for any adverse affects. Mice body weights were taken prior to treatment and every other day during the post treatment. If an animal became unwell, any treatment of that animal was suspended. If there was no recovery, the animal was sacrificed. […] Mice transplant area size measurements were taken prior to treatment and every other day during and post treatment. The same scientist was responsible for taking the measurements throughout the study.
(§4) Groups of 5 male mice and 5 female mice bearing psoriatic tissues were treated with either (−) cis-[4-[2-amino-6-(cyclopropylamino)-9H-purin-9-yl]-2-cyclopentene-1-hydroxymethyl acetate (Prurisol) alone or methotrexate (MTX) according to the schedule below. Another group of mice remained untreated to serve as controls.
(§5) Prurisol was administered orally (PO) to the mice, along with the topical application at 8 hour intervals on the effected area. […] In psoriasis, anti-apoptotic protein G1P3 is over expressed, which is regulated by the non-coding RNA. Psoriasis susceptibility related RNA Gene Induced by Stress (PRINS) was examined in control animal's transplants and treated ones (the expression in psoriatic plaques will be 10 times higher), and results from these studies are shown below.

IL-20 = IL-20 in tissue measured by ELISA, psoriatic xenograft SCID mice; type: in vivo, SCID mice bearing human psoriatic tissue; conditions: for IL-20: ELISA, control 178; for reduction of IL-20 concentration in tissue: versus control
Experimental: as §1, §2, §3, §4
IL-20 was also measured using ELISA technique and data is also shown below.

human psoriatic tissue = test: Recovery from psoriasis in SCID mice implanted with human psoriatic tissue; type: in vivo; conditions: 10 mg, one time per day or BID
Experimental: as §1, §2
24 Hours after the TBI, a 5 mm×5 mm cut of the human psoriatic tissue was transplanted on the skin of the mice, under ketamine/xylazine anesthesia. The tissues were adherent by using a skin cement. All animals survived the anesthesia and the surgery for the experiment. The complete fusion of the tissues was achieved by day 27. During treatments, mice were observed daily for any adverse affects. Mice body weights were taken prior to treatment and every other day during the post treatment. If an animal became unwell, any treatment of that animal was suspended. If there was no recovery, the animal was sacrificed. […]

[2] = Weight changes of treated mice; type: in vivo, SCID mice
Experimental: as §3, §5

[3] = Oral bioavailability and disposition of Prurisol; conditions: in vivo
Storage stability = type: physicochemical; conditions: stored at ambient temperature, protected from light
[4] = Prurisol 10 mg/kg, MTX 7.5 mg/kg

SMILES	PRINS [1, 4]	IL-20 (IL-20; [4])	reduction of IL-20 concentration in tissue (IL-20) [fold]	recovery from psoriasis (skin appearance, FIG. 6) (human psoriatic tissue)	weight loss ([2]; 5 mg/kg on days 11 to 35 and 20 mg/kg topically)	weight loss due to administration ([2]; orally (PO) along with topical application at 8 hour intervals)	PRINS ([1]; Prurisol × 2 (2×10 mg/kg))	PRINS reduction in comparison to methotrexate ([1]; in vivo)	crossing the blood brain barrier [3]	metabolism route [3]	bioavailability ([3]; oral, read-out: oral bioavailability (% F)) [%]	IL-20 (IL-20; Prurisol × 2 (2×10 mg/kg))	stability (Storage stability)
CN(Cc1cnc2nc(N)nc(N)c2n1)c1ccc(C(=O)N[C@@H](CCC(=O)O)C(=O)O)cc1 [MTX, methotrexate, reference compound]	28	127	1.4	–	–	–	–	–	–	–	–	–	–
Nc1nc(NC2CC2)c2ncn([C@H]3C=C[C@@H](COC(=O)CO)C3)c2n1 [Prurisol]	24	54	3	recovered from psoriasis	no weight loss	within acceptable limits	5	reduces PRINS significantly	capable of crossing the blood brain barrier	metabolized primarily through alcohol dehydrogenase or glucuronyl transferase	83	18	stable
